Entries after “also recorded” stand apart in the source; their conditions may differ. Bridge positions count the residues as written; N and C are the ends. Peptide text beside a SMILES is read from it.
Experiments:
[1] = biological target: T1, hNaV1.7 (Homo sapiens, UniProt Q15858); assay: Whole-cell patch clamp on hNaV1.7 expressed in HEK 293 cells; type: cell-based; conditions: for IC50: HEK 293 cells transfected with hNaV1.7 plus human β1 and β2 subunits, room temperature (20–25 °C), 50 ms depolarization to −10 mV from holding −100 mV, mean ± SEM
T1 construct: expressed in transfected cells; host or cells: HEK 293
T1 sequence (O60939 30-215): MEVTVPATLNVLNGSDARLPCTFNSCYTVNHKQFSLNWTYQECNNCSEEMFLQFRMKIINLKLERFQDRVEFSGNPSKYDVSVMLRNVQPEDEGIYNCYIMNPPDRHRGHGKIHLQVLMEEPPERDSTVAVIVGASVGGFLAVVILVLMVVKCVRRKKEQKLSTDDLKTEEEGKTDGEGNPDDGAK
T1 sequence (Q07699 19-218, further chain): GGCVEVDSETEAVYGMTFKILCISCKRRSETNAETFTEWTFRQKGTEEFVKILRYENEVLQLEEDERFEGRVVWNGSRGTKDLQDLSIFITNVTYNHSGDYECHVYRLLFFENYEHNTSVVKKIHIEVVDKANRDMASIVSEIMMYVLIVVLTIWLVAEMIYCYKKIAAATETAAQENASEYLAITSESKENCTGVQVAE
T1 sequence (Q15858 other isoform, or with tags, fused parts or gaps): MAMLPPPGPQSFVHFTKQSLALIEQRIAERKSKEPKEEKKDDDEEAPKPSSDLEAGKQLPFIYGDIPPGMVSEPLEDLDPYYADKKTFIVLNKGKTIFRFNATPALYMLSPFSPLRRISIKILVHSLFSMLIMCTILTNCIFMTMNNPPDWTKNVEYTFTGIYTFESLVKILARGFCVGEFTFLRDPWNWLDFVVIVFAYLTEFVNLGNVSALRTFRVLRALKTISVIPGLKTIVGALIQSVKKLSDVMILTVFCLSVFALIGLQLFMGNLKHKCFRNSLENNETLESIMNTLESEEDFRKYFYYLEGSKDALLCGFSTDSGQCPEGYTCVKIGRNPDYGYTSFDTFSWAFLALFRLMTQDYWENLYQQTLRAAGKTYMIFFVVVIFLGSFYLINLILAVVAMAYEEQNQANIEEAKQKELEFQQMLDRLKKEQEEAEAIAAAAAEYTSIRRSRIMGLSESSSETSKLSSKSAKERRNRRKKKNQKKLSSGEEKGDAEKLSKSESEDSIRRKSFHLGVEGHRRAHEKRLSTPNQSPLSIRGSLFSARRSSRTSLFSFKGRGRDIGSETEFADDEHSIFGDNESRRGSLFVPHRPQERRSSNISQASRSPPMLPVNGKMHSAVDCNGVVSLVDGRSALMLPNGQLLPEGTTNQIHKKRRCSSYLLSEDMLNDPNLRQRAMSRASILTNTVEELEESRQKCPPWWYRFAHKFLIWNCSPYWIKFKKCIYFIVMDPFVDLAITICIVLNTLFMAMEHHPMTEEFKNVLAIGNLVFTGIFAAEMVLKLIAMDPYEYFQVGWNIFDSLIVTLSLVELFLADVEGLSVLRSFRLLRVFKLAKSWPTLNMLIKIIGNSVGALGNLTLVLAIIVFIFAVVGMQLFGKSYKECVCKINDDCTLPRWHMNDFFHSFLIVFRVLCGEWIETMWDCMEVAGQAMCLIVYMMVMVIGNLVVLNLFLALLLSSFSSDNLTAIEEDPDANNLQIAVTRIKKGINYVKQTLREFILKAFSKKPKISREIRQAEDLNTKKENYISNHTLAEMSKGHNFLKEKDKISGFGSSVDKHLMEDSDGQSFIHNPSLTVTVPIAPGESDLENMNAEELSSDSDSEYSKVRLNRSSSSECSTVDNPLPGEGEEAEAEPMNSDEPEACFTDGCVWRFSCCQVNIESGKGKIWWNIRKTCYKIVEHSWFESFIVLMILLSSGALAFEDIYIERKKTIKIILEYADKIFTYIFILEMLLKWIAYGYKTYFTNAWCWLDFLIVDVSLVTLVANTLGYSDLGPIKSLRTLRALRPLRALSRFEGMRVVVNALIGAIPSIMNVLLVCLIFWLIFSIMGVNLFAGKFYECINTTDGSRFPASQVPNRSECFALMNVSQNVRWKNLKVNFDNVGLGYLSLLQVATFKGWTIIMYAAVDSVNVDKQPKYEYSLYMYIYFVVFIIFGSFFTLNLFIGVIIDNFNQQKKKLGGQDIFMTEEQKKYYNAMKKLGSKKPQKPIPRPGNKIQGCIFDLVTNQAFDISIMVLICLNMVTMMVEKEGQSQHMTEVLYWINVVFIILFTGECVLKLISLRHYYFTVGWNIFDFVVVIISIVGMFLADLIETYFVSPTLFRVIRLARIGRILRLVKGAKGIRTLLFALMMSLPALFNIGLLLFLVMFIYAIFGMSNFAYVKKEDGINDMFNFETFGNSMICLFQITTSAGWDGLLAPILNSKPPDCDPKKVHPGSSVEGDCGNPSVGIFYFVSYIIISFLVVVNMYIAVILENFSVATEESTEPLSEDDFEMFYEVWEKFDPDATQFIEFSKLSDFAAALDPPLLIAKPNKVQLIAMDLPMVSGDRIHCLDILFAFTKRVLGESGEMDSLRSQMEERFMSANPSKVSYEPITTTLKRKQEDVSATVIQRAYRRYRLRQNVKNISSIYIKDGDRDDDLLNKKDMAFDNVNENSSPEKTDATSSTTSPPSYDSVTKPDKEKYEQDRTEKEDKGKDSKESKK
Experimental: We maintained human embryonic kidney (HEK) 293 cells at 37 °C in a humidified 5% CO2 incubator in Dulbecco’s Modified Eagle’s Medium (DMEM) supplemented with 10% fetal bovine serum (FBS), 2 mM L-glutamine, 100 units/mL penicillin and 100 µg/mL streptomycin. cDNA genes encoding rat Nav1.2 and mouse Nav1.6 were subcloned into the vectors pcDNA3.1, respectively. We subcloned the gene that encodes hNaV1.7 into the vector pcDNA3.1-mod. We transfected the hNaV1.7 channel (3 μg) together with plasmids β1- (1 μg) and β2-eGFP ([…]), which encode the human β1 and β2 subunits, and Nav1.2 and Nav1.6 together with eGFP in HEK 293 cells using Lipofectamine 2000 (Invitrogen, Carlsbad, CA, USA) per the manufacturer’s instructions.
We performed whole-cell recordings using an EPC 10 patch clamp platform (HEKA, Elektronik, Lambrecht, Germany) at room temperature (20–25 °C). We made suction pipettes with access resistance of 2.0–3.0 MΩ from borosilicate glass capillary tubes (VWR micropipettes; VWR Co., West Chester, PA, USA) using a 2-step vertical microelectrode puller (PC-10; Narishige Co., Ltd., Tokyo, Japan) and compensated for voltage errors using 80% serial-resistance compensation. The standard pipette solution contained (in mM): 140 CsCl, 10 NaCl, 1 ethylene glycol-bis (β-aminoethyl ether)-N,N,N′,N′-tetraacetic acid (EGTA), and 10 HEPES (pH 7.4). The bath solution contained (in mM): 140 NaCl, 2 CaCl2, 1 MgCl2, 5 KCl, 20 4-(2-hydroxyethyl)-1-piperazineethanesulfonic acid (HEPES) and 10 glucose (pH 7.4). We purchased all chemicals from Sigma-Aldrich (St. Louis, MO, USA) and dissolved them in water. Data were acquired using PATCHMASTER software version 2x73 (HEKA Elektronik Dr. Schulze GmbH, Lambrecht, Germany). We filtered macroscopic sodium currents at 5 kHz and sampled them at 20 kHz. We acquired voltage clamp recordings 5 min after establishing a whole-cell configuration to allow adequate equilibration between the micropipette solution and the cell interior. We elicited channel current by 50 milliseconds of depolarization potential to −10 mV from the holding voltage of −100 mV.
We analyzed the data using Igor Pro software version 6.10A (WaveMetrics, Lake Oswego, OR, USA), Sigmaplot software version 10 (Sigma, St. Louis, MO, USA), OriginPro software version 8 (OriginLab Corp., Northampton, MA, USA) and Prism software version 5 (GraphPad Software, San Diego, CA, USA). Concentration–response curves were fitted using the following Hill logistic equation:y = fmax − (fmax − fmin)/(1 + (x/IC50)^n)(1) where fmax and fmin respectively represent the channel’s maximum and minimum responses to toxins, fmin was set to 0, x represents toxin concentration and n is an empirical Hill coefficient. All quantitative results are presented as mean ± standard error of the mean (SEM).

[2] = test system: mammalian voltage-gated sodium channels (VGSCs); conditions: including hNaV1.7; cited from earlier work
From the text: Pain is a medical condition that interferes with normal human life and work and reduces human well-being worldwide. Human voltage-gated sodium channel NaV1.7 (hNaV1.7) is a compelling target that plays a key role in human pain signaling. […] We engineered analogues of HNTX-I based on sequence conservation in NaSpTx family 1. Substitution of Asn for Ser at position 23 or Asp for His at ... || Previously, we reported the identification of 33-residue peptide µ-TRTX-Hhn2b (HNTX-I), a member of NaSpTx family 1, from the venom of the spider Selenocosmia hainana. Although the amino acid sequence of this family is highly conserved, HNTX-I has shown weak affinity on insect sodium channels and no effect on mammalian voltage-gated sodium channels (VGSCs), unlike the majority of peptide toxins in NaSpTx family 1 [20]. In this study, we used HNTX-I as a framework and engineered analogues of it based on sequence conservation in the family. Ultimately, we engineered a gain-of-function analogue ...

[3] = test system: insect sodium channels; conditions: cited from earlier work
From the text: Previously, we reported the identification of 33-residue peptide µ-TRTX-Hhn2b (HNTX-I), a member of NaSpTx family 1, from the venom of the spider Selenocosmia hainana. Although the amino acid sequence of this family is highly conserved, HNTX-I has shown weak affinity on insect sodium channels and no effect on mammalian voltage-gated sodium channels (VGSCs), unlike the majority of peptide toxins in NaSpTx family 1 [20]. In this study, we used HNTX-I as a framework and engineered analogues of it based on sequence conservation in the family. Ultimately, we engineered a gain-of-function analogue ...

| Compound | Activity on NaV1.7 at a concentration of 10 µM ([1]; 10 µM peptide, HEK 293 cells (Figure 2A–C)) | IC50 ([1]; n ≥ 3) [nM] | Effect on mammalian voltage-gated sodium channels (VGSCs) [2] | Affinity on insect sodium channels [3] | IC50 ([1]; n ≥ 3, SEM) [nM] |
| --- | --- | --- | --- | --- | --- |
| CC(C)C[C@H](NC(=O)[C@H](CC(C)C)NC(=O)[C@@H](NC(=O)[C@H](CCCCN)NC(=O)[C@@H]1CSSC[C@@H]2NC(=O)[C@H](CCC(=O)O)NC(=O)[C@H](CC(N)=O)NC(=O)[C@H](CCCCN)NC(=O)CNC(=O)[C@@H]3CCCN3C(=O)[C@H](C(C)C)NC(=O)[C@@H]3CSSC[C@H](NC(=O)[C@H](C)NC(=O)[C@H](Cc4ccc(O)cc4)NC(=O)CNC(=O)[C@H](CO)NC(=O)[C@H](CSSC[C@H](NC(=O)[C@@H](N)CCC(=O)O)C(=O)N[C@@H](CCCCN)C(=O)NCC(=O)N[C@@H](Cc4ccccc4)C(=O)NCC(=O)N[C@@H](CCCCN)C(=O)N[C@@H](CO)C(=O)N3)NC2=O)C(=O)N[C@@H](CC(N)=O)C(=O)N[C@@H](CO)C(=O)N[C@@H](CCCNC(=N)N)C(=O)N[C@@H](CC(=O)O)C(=O)N[C@@H](CCCCN)C(=O)N[C@@H](Cc2c[nH]c3ccccc23)C(=O)N1)C(C)C)C(=O)O [Native HNTX-I] (H-ECKGFGKSCVPGKNECCSGYACNSRDKWCKVLL-OH; disulfide 2-17, 9-22, 16-29 (inferred); N-terminus and C-terminus assumed) | negligible activity | > 10000 | negligible activity; also recorded: no effect | weak affinity |  |
| CC(C)C[C@H](NC(=O)[C@H](Cc1c[nH]c2ccccc12)NC(=O)[C@@H](NC(=O)[C@H](CCCCN)NC(=O)[C@@H]1CSSC[C@@H]2NC(=O)[C@H](CCC(=O)O)NC(=O)[C@H](CC(N)=O)NC(=O)[C@H](CCCCN)NC(=O)CNC(=O)[C@@H]3CCCN3C(=O)[C@H](C(C)C)NC(=O)[C@@H]3CSSC[C@H](NC(=O)[C@H](C)NC(=O)[C@H](Cc4ccc(O)cc4)NC(=O)CNC(=O)[C@H](CO)NC(=O)[C@H](CSSC[C@H](NC(=O)CN)C(=O)N[C@@H](CCCCN)C(=O)NCC(=O)N[C@@H](Cc4ccccc4)C(=O)NCC(=O)N[C@@H](CCCCN)C(=O)N[C@@H](CO)C(=O)N3)NC2=O)C(=O)N[C@@H](CO)C(=O)N[C@@H](CO)C(=O)N[C@@H](CCCNC(=N)N)C(=O)N[C@@H](Cc2c[nH]cn2)C(=O)N[C@@H](CCCCN)C(=O)N[C@@H](Cc2c[nH]c3ccccc23)C(=O)N1)C(C)C)C(=O)O [E1G–N23S–D26H–L32W] (H-GCKGFGKSCVPGKNECCSGYACSSRHKWCKVWL-OH; disulfide 2-17, 9-22, 16-29) |  |  |  |  | 36 ± 7 |
| CC(C)C[C@H](NC(=O)[C@H](CC(C)C)NC(=O)[C@@H](NC(=O)[C@H](CCCCN)NC(=O)[C@@H]1CSSC[C@@H]2NC(=O)[C@H](CCC(=O)O)NC(=O)[C@H](CC(N)=O)NC(=O)[C@H](CCCCN)NC(=O)CNC(=O)[C@@H]3CCCN3C(=O)[C@H](C(C)C)NC(=O)[C@@H]3CSSC[C@H](NC(=O)[C@H](C)NC(=O)[C@H](Cc4ccc(O)cc4)NC(=O)CNC(=O)[C@H](CO)NC(=O)[C@H](CSSC[C@H](NC(=O)CN)C(=O)N[C@@H](CCCCN)C(=O)NCC(=O)N[C@@H](Cc4ccccc4)C(=O)NCC(=O)N[C@@H](CCCCN)C(=O)N[C@@H](CO)C(=O)N3)NC2=O)C(=O)N[C@@H](CC(N)=O)C(=O)N[C@@H](CO)C(=O)N[C@@H](CCCCN)C(=O)N[C@@H](Cc2c[nH]cn2)C(=O)N[C@@H](CCCCN)C(=O)N[C@@H](Cc2c[nH]c3ccccc23)C(=O)N1)C(C)C)C(=O)O [E1G–R25K–D26H] (H-GCKGFGKSCVPGKNECCSGYACNSKHKWCKVLL-OH; disulfide 2-17, 9-22, 16-29) |  |  |  |  | 766 ± 29 |
| CC(C)C[C@H](NC(=O)[C@H](CC(C)C)NC(=O)[C@@H](NC(=O)[C@H](CCCCN)NC(=O)[C@@H]1CSSC[C@@H]2NC(=O)[C@H](CCC(=O)O)NC(=O)[C@H](CC(N)=O)NC(=O)[C@H](CCCCN)NC(=O)CNC(=O)[C@@H]3CCCN3C(=O)[C@H](C(C)C)NC(=O)[C@@H]3CSSC[C@H](NC(=O)[C@H](C)NC(=O)[C@H](Cc4ccc(O)cc4)NC(=O)CNC(=O)[C@H](CO)NC(=O)[C@H](CSSC[C@H](NC(=O)CN)C(=O)N[C@@H](CCCCN)C(=O)NCC(=O)N[C@@H](Cc4ccccc4)C(=O)NCC(=O)N[C@@H](CCCCN)C(=O)N[C@@H](CO)C(=O)N3)NC2=O)C(=O)N[C@@H](CO)C(=O)N[C@@H](CO)C(=O)N[C@@H](CCCNC(=N)N)C(=O)N[C@@H](Cc2c[nH]cn2)C(=O)N[C@@H](CCCCN)C(=O)N[C@@H](Cc2c[nH]c3ccccc23)C(=O)N1)C(C)C)C(=O)O [E1G–N23S–D26H] (H-GCKGFGKSCVPGKNECCSGYACSSRHKWCKVLL-OH; disulfide 2-17, 9-22, 16-29) |  |  |  |  | 179 ± 24 |

— publication PMC6162447, “Engineering Gain-of-Function Analogues of the Spider Venom Peptide HNTX-I, A Potent Blocker of the hNaV1.7 Sodium Channel” (Toxins, 2018)
